From PubChem BioAssay (NCI)
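Growth conditions: 96-well plates. Treatment: test compound, 48 hours, 5 concentrations. Analysis: linear interpolation between bracketing concentrations; unreached endpoints set to highest concentration. Here, GI50 denotes the concentration required for 50% inhibition of growth. The concentration for full growth arrest is given as TGI.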

Experiments:
Experiment in all cases: DTP human tumour cell line panel, 48 h
MDA-N = tested on: MDA-N
A549 NSCLC = tested on: A549 NSCLC
BT-549 breast = tested on: BT-549 breast
IGROV1 ovarian = tested on: IGROV1 ovarian
NCI-H460 lung = tested on: NCI-H460 lung
SF-539 CNS = tested on: SF-539 CNS
ACHN renal = tested on: ACHN renal
M14 melanoma = tested on: M14 melanoma
K-562 leukemia = tested on: K-562 leukemia
HCC-2998 colon = tested on: HCC-2998 colon
UACC-257 melanoma = tested on: UACC-257 melanoma
UO-31 renal = tested on: UO-31 renal
HOP-92 NSCLC = tested on: HOP-92 NSCLC
SF-295 CNS = tested on: SF-295 CNS
786-0 renal = tested on: 786-0 renal
OVCAR-4 ovarian = tested on: OVCAR-4 ovarian
EKVX NSCLC = tested on: EKVX NSCLC
NCI-H226 lung = tested on: NCI-H226 lung
HCT-15 colon = tested on: HCT-15 colon
MOLT-4 leukemia = tested on: MOLT-4 leukemia
OVCAR-8 ovarian = tested on: OVCAR-8 ovarian
SR leukemia = tested on: SR leukemia
SNB-19 CNS = tested on: SNB-19 CNS
CAKI-1 renal = tested on: CAKI-1 renal
MALME-3M melanoma = tested on: MALME-3M melanoma
U251 CNS = tested on: U251 CNS
SK-MEL-28 melanoma = tested on: SK-MEL-28 melanoma
HCT-116 colon = tested on: HCT-116 colon
RPMI-8226 leukemia = tested on: RPMI-8226 leukemia
SNB-75 CNS = tested on: SNB-75 CNS
TK-10 renal = tested on: TK-10 renal
HL-60(TB) leukemia = tested on: HL-60(TB) leukemia
KM12 colon = tested on: KM12 colon
OVCAR-5 ovarian = tested on: OVCAR-5 ovarian
DU-145 prostate = tested on: DU-145 prostate
NCI-H23 lung = tested on: NCI-H23 lung
SK-MEL-5 melanoma = tested on: SK-MEL-5 melanoma
LOX IMVI melanoma = tested on: LOX IMVI melanoma
RXF 393 renal = tested on: RXF 393 renal
COLO 205 colon = tested on: COLO 205 colon
UACC-62 melanoma = tested on: UACC-62 melanoma
NCI/ADR-RES ovarian = tested on: NCI/ADR-RES ovarian
CCRF-CEM leukemia = tested on: CCRF-CEM leukemia
SK-OV-3 ovarian = tested on: SK-OV-3 ovarian
NCI-H522 lung = tested on: NCI-H522 lung
A498 renal = tested on: A498 renal
SN12C renal = tested on: SN12C renal
MCF7 breast = tested on: MCF7 breast
MDA-MB-231 breast = tested on: MDA-MB-231 breast
MDA-MB-435 = tested on: MDA-MB-435
SW-620 colon = tested on: SW-620 colon
SF-268 CNS = tested on: SF-268 CNS
HOP-62 NSCLC = tested on: HOP-62 NSCLC
PC-3 prostate = tested on: PC-3 prostate
HT29 colon = tested on: HT29 colon
SK-MEL-2 melanoma = tested on: SK-MEL-2 melanoma
OVCAR-3 ovarian = tested on: OVCAR-3 ovarian
HS 578T breast = tested on: HS 578T breast
T-47D breast = tested on: T-47D breast

## N=C1C=C/[N+](=C\C=CCO)C([O-])=N1
MDA-N
  GI50: > 1000 µM
  TGI: > 1000 µM

## Cc1ccc(S(=O)(=O)Nn2c(S)c(C#N)c(-c3ccc(N(C)C)cc3)c(C#N)c2=O)cc1
A549 NSCLC
  TGI: > 100 µM
BT-549 breast
  TGI: 67.3 µM
IGROV1 ovarian
  TGI: 38.5 µM
NCI-H460 lung
  TGI: 39.3 µM
SF-539 CNS
  TGI: 40.7 µM
ACHN renal
  TGI: > 100 µM
M14 melanoma
  TGI: > 100 µM
K-562 leukemia
  TGI: > 100 µM
HCC-2998 colon
  TGI: > 100 µM
UACC-257 melanoma
  TGI: > 100 µM
UO-31 renal
  TGI: 44.8 µM
HOP-92 NSCLC
  TGI: > 100 µM
MDA-N
  TGI: > 100 µM
SF-295 CNS
  TGI: > 100 µM
786-0 renal
  TGI: > 100 µM
OVCAR-4 ovarian
  TGI: 43.1 µM
EKVX NSCLC
  TGI: > 100 µM
NCI-H226 lung
  TGI: 34.6 µM
HCT-15 colon
  TGI: 56.5 µM
MOLT-4 leukemia
  TGI: > 100 µM
OVCAR-8 ovarian
  TGI: 44.9 µM
SR leukemia
  TGI: > 100 µM
SNB-19 CNS
  TGI: > 100 µM
CAKI-1 renal
  TGI: > 100 µM
MALME-3M melanoma
  TGI: 80.6 µM
U251 CNS
  TGI: 55.6 µM
SK-MEL-28 melanoma
  TGI: 77.4 µM
HCT-116 colon
  TGI: 90.5 µM
RPMI-8226 leukemia
  TGI: 91.5 µM
SNB-75 CNS
  TGI: > 100 µM
TK-10 renal
  TGI: 76.2 µM
HL-60(TB) leukemia
  TGI: 79.6 µM
KM12 colon
  TGI: 52.2 µM
OVCAR-5 ovarian
  TGI: > 100 µM
DU-145 prostate
  TGI: > 100 µM
NCI-H23 lung
  TGI: 61.1 µM
SK-MEL-5 melanoma
  TGI: 45.3 µM
LOX IMVI melanoma
  TGI: > 100 µM
RXF 393 renal
  TGI: 88.3 µM
COLO 205 colon
  TGI: 67.8 µM
UACC-62 melanoma
  TGI: > 100 µM
NCI/ADR-RES ovarian
  TGI: 97.2 µM
CCRF-CEM leukemia
  TGI: > 100 µM
SK-OV-3 ovarian
  TGI: > 100 µM
NCI-H522 lung
  TGI: 37.8 µM
A498 renal
  TGI: 80.6 µM
SN12C renal
  TGI: 68.2 µM
MCF7 breast
  TGI: > 100 µM
MDA-MB-231 breast
  TGI: > 100 µM
MDA-MB-435
  TGI: 60 µM
SW-620 colon
  TGI: 37.7 µM

## CCN1C(C)(C)CC(Oc2ccc(C(=O)Nc3ccc(NC(=O)Nc4cc(C(C)(C)C)on4)cc3)nc2)CC1(C)C
A549 NSCLC
  GI50: 2.71 µM
  TGI: 7.4 µM
BT-549 breast
  GI50: 4.53 µM
  TGI: 10.3 µM
IGROV1 ovarian
  GI50: 6.86 µM
  TGI: 47.5 µM
NCI-H460 lung
  GI50: 1.89 µM
  TGI: 3.69 µM
SF-539 CNS
  GI50: 1.15 µM
  TGI: 2.62 µM
ACHN renal
  GI50: 2.05 µM
  TGI: 4.37 µM
M14 melanoma
  GI50: 1.91 µM
  TGI: 3.63 µM
K-562 leukemia
  GI50: 1.69 µM
  TGI: 3.76 µM
SF-268 CNS
  GI50: 2.39 µM
  TGI: 7.71 µM
HCC-2998 colon
  GI50: 1.9 µM
  TGI: 4.17 µM
UACC-257 melanoma
  GI50: 2.2 µM
  TGI: 4.02 µM
UO-31 renal
  GI50: 1.67 µM
  TGI: 4.25 µM
HOP-92 NSCLC
  GI50: 2.38 µM
  TGI: 8.09 µM
SF-295 CNS
  GI50: 1.67 µM
  TGI: 3.27 µM
786-0 renal
  GI50: 1.66 µM
  TGI: 3.52 µM
OVCAR-4 ovarian
  GI50: 5.23 µM
  TGI: 25.9 µM
EKVX NSCLC
  GI50: 3.6 µM
  TGI: 20.9 µM
NCI-H226 lung
  GI50: 11.2 µM
  TGI: 30.7 µM
HCT-15 colon
  GI50: 1.71 µM
  TGI: 3.72 µM
MOLT-4 leukemia
  GI50: 1.93 µM
  TGI: 5.24 µM
OVCAR-8 ovarian
  GI50: 2.29 µM
  TGI: 5.66 µM
SR leukemia
  GI50: 2.28 µM
  TGI: 4.91 µM
SNB-19 CNS
  GI50: 2.64 µM
  TGI: 11.2 µM
HOP-62 NSCLC
  GI50: 1.67 µM
  TGI: 3.87 µM
CAKI-1 renal
  GI50: 1.98 µM
  TGI: 5.35 µM
MALME-3M melanoma
  GI50: 1.61 µM
  TGI: 3.37 µM
U251 CNS
  GI50: 1.68 µM
  TGI: 3.58 µM
SK-MEL-28 melanoma
  GI50: 1.8 µM
  TGI: 3.63 µM
HCT-116 colon
  GI50: 1.99 µM
  TGI: 3.68 µM
RPMI-8226 leukemia
  GI50: 1.96 µM
  TGI: 4.72 µM
SNB-75 CNS
  GI50: 1.35 µM
  TGI: 3.44 µM
TK-10 renal
  GI50: 5.49 µM
  TGI: 14 µM
HL-60(TB) leukemia
  GI50: 2.02 µM
  TGI: 4.38 µM
KM12 colon
  GI50: 2.91 µM
  TGI: 9.35 µM
OVCAR-5 ovarian
  GI50: 2.94 µM
  TGI: 11.4 µM
DU-145 prostate
  GI50: 1.87 µM
  TGI: 3.72 µM
PC-3 prostate
  GI50: 2.88 µM
  TGI: 8.82 µM
NCI-H23 lung
  GI50: 3.64 µM
  TGI: 20.1 µM
SK-MEL-5 melanoma
  GI50: 1.68 µM
  TGI: 3.22 µM
HT29 colon
  GI50: 1.58 µM
  TGI: 3.86 µM
LOX IMVI melanoma
  GI50: 1.78 µM
  TGI: 3.31 µM
RXF 393 renal
  GI50: 1.64 µM
  TGI: 3.36 µM
SK-MEL-2 melanoma
  GI50: 2.09 µM
  TGI: 4.89 µM
COLO 205 colon
  GI50: 1.83 µM
  TGI: 3.82 µM
UACC-62 melanoma
  GI50: 1.76 µM
  TGI: 3.51 µM
NCI/ADR-RES ovarian
  GI50: 2.48 µM
  TGI: > 22.6 µM
CCRF-CEM leukemia
  GI50: 2.85 µM
  TGI: 7.77 µM
SK-OV-3 ovarian
  GI50: 6.03 µM
  TGI: 15.9 µM
OVCAR-3 ovarian
  GI50: 1.78 µM
  TGI: 3.86 µM
NCI-H522 lung
  GI50: 1.82 µM
  TGI: 4.23 µM
A498 renal
  GI50: 1.95 µM
  TGI: 11.6 µM
SN12C renal
  GI50: 1.66 µM
  TGI: 3.4 µM
MCF7 breast
  GI50: 2.14 µM
  TGI: 5.55 µM
MDA-MB-231 breast
  GI50: 2.02 µM
  TGI: 4.82 µM
MDA-MB-435
  GI50: 1.82 µM
  TGI: 3.47 µM
HS 578T breast
  GI50: 1.44 µM
  TGI: 6.06 µM
T-47D breast
  GI50: 2.34 µM
  TGI: 7.2 µM
SW-620 colon
  GI50: 2.1 µM
  TGI: 4.37 µM
